Experimental data taken from ChEMBL document CHEMBL5154862, “Structure-Based Discovery of MDM2/4 Dual Inhibitors that Exert Antitumor Activities against MDM4-Overexpressing Cancer Cells” (J Med Chem, 2022).
Activity calls are given as the source filed them. The rule behind the calls is not given here.

Columns and labels:
[1] = Cytotoxicity against HEK293 cells assessed as cell growth inhibition incubated for 4 days by CCK-8 assay; type: toxicity, cell-based; details: human
RKO [2] = assay: Antitumor activity against human RKO cells xenografted in BALB/c mouse assessed as tumor growth inhibition at 50 mg/kg, po qd administered via gavage for 21 consecutive days and measured on day 21 relative to control; type: functional; details: 504 h, time 21 day, read-out: TGI
RKO [3] = assay: Upregulation of p21 gene expression in human RKO cells incubated for 24 hrs by qPCR analysis; type: functional, cell-based; details: dose 0.3125-2.5 µM, DDE = dose-dependent effect
U2OS [4] = assay: Upregulation of MDM2 protein expression in human U2OS cells at 2.5 uM measured after 24 hrs by Western blot analysis; type: functional, cell-based
[5] = molecular target: E3 ubiquitin-protein ligase Mdm2 (Homo sapiens, UniProt Q00987); assay: Displacement of 5-FAM labeled PDI peptide from MDM2 (1 to 118 residues) (unknown origin) expressed in Escherichia coli BL21 (DE3) assessed as inhibition constant incubated for 1.5 hrs by fluorescence polarization competition assay
[6] = Cmax in ICR mouse at 15 mg/kg, po measured upto 24 hrs by LC-MS/MS analysis; type: ADME, organism-based; parameters: time < 24 hrs, dose 15 mg/kg, route po; details: in vivo
HCT-116 [7] = assay: Upregulation of p53 protein expression in human HCT-116 cells at 2.5 uM measured after 24 hrs by Western blot analysis; type: functional, cell-based
HCT-116 [8] = assay: cells; details: Homo sapiens, HCT-116, 96 h
RKO [9] = assay: Induction of apoptosis in human RKO cells assessed as early apoptotic cells at 12.5 uM measured after 48 hrs by Annexin V-FITC/PI staining based flow cytometry analysis (reference value: 3.56 %); type: functional
U2OS [10] = assay: cells; details: Homo sapiens, 96 h
RKO [11] = assay: Induction of apoptosis in human RKO cells assessed as necrotic cells at 6.25 uM measured after 48 hrs by Annexin V-FITC/PI staining based flow cytometry analysis (reference value: 2.08 %); type: functional
MCF7 = assay: Upregulation of p21 protein expression in human MCF7 cells at 2.5 uM measured after 24 hrs by Western blot analysis; type: functional, cell-based
[12] = Displacement of 5-FAM labeled PDI peptide from MDM4 C17S mutant (14 to 111 residues) (unknown origin) expressed in Escherichia coli BL21 (DE3) assessed as inhibition constant incubated for 1.5 hrs by fluorescence polarization competition assay; parameters: species or system Homo sapiens
RKO [13] = assay: Induction of apoptosis in human RKO cells assessed as viable cells at 6.25 uM measured after 48 hrs by Annexin V-FITC/PI staining based flow cytometry analysis (reference value: 93.54 %); type: functional; details: read-out: Activity
RKO [14] = assay: Induction of apoptosis in human RKO cells assessed as viable cells at 12.5 uM measured after 48 hrs by Annexin V-FITC/PI staining based flow cytometry analysis (reference value: 93.54 %); type: functional; details: read-out: Activity
RKO [15] = assay: Upregulation of MDM2 expression in human RKO cells incubated for 24 hrs by Western blot analysis; type: functional, cell-based; details: dose 0.3125-2.5 µM, DDE = dose-dependent effect

Chain of E3 ubiquitin-protein ligase Mdm2 (Q00987 whole entry, the tested form may be a part): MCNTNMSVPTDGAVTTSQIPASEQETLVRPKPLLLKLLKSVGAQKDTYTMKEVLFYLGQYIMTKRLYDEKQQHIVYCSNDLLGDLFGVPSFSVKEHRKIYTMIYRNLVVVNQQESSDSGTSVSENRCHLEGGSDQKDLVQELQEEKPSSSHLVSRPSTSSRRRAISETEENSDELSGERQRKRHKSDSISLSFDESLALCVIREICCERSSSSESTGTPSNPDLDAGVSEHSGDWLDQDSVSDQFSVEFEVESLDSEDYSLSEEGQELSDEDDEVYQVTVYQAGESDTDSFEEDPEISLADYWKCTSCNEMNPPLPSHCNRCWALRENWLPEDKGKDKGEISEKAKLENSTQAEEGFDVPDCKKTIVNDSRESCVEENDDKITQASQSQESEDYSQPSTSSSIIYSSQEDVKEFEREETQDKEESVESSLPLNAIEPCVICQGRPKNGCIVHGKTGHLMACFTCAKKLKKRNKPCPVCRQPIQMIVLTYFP

SMILES: COc1cc(C(=O)O)ccc1NC(=O)[C@@H]1N[C@@H](CC(C)(C)C)[C@](CNCc2ccncc2)(c2ccc(Cl)cc2F)[C@H]1c1cccc(Cl)c1F
- IC50 at 4 days [1]: 6250 nM
- inhibition in vivo at 50 mg/kg (RKO [2]): 5%
- Activity (RKO [3]): Dde
- Activity (U2OS [4]): Active
- Ki [5]: 1.1 nM
- Cmax [6]: 1080 ng/mL
- Activity (HCT-116 [7]): Active
- IC50 (HCT-116 [8]): 50.7 nM
- Activity (RKO [9]): 9.54%
- IC50 (U2OS [10]): 370 nM
- Activity (RKO [11]): 16.09%
- Activity (MCF7): Active
- Ki [12]: 643 nM
- viability at 6.25 µM (RKO [13]): 74.5%
- viability at 12.5 µM (RKO [14]): 85%
- Activity (RKO [15]): Dde
